Read-outs that look alike come from different tables or passages of the source.
Experiments:
Assay in all cases: biochemical
Format in all cases: biochemical
[1] = molecular target: T1, 363 human kinases (including Aurora A/B/C) (Homo sapiens, UniProt Q6P3R8); settings: NEK5; for remaining activity at 0.1 µM: 100 nM; for remaining activity at 0.1 µM / remaining activity at 0.5 µM: read-out: % Enzyme Activity (relative to DMSO controls)
T1 sequence (Q6P3R8 1-708): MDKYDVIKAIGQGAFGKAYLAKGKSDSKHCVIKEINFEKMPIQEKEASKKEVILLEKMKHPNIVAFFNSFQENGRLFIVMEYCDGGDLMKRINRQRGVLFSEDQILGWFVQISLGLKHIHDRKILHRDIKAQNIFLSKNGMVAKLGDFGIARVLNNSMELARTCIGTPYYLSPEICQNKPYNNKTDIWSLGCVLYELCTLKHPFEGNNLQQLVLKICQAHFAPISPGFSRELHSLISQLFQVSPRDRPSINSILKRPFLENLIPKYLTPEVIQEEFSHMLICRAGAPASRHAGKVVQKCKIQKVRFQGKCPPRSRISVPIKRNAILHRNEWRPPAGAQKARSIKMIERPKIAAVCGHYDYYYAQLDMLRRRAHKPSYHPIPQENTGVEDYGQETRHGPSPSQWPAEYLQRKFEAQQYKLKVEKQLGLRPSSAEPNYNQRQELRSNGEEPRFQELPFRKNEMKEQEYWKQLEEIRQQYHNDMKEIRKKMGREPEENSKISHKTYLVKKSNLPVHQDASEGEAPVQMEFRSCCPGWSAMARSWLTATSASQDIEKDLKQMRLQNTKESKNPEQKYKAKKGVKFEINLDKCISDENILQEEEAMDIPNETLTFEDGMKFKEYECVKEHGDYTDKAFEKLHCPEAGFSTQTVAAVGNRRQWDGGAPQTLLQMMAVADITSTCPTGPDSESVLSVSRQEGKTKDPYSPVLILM
Excerpt: (§1) However, the Aurora A/B selectivity ratios derived from our in vitro and in vivo data can be compared to prioritize inhibitors.

[2] = molecular target: 363 human kinases (including Aurora A/B/C) (Homo sapiens, UniProt O96017); settings: CHK2, [ATP] 20 µM
Chain of 363 human kinases (including Aurora A/B/C) (Homo sapiens, UniProt O96017) (O96017 whole entry): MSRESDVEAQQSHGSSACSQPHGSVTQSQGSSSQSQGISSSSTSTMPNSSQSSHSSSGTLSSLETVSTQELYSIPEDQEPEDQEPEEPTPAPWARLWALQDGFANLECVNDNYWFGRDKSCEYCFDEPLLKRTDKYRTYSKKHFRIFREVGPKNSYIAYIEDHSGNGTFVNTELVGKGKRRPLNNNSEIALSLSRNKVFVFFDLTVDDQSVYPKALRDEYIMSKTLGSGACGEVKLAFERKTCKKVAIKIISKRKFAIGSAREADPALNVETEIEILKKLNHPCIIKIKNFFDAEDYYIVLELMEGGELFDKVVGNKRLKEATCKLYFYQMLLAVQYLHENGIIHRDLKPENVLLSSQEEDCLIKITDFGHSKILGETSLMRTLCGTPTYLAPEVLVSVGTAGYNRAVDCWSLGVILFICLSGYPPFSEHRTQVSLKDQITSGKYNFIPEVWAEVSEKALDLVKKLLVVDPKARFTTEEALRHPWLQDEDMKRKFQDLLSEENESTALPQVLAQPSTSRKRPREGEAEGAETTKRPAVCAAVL
Excerpt: as §1

[3] = molecular target: 363 human kinases (including Aurora A/B/C) (Homo sapiens, UniProt Q5VT25); settings: MRCKa/CDC42BPA; for remaining activity at 0.1 µM: 100 nM; for remaining activity at 0.1 µM / remaining activity at 0.5 µM: read-out: % Enzyme Activity (relative to DMSO controls)
Excerpt: as §1

[4] = molecular target: 363 human kinases (including Aurora A/B/C) (Homo sapiens, UniProt Q00537); settings: CDK17/cyclin Y (PCTK2), [ATP] 50 µM; for remaining activity at 0.1 µM: 100 nM; for remaining activity at 0.1 µM / remaining activity at 0.5 µM: read-out: % Enzyme Activity (relative to DMSO controls)
Chain of 363 human kinases (including Aurora A/B/C) (Homo sapiens, UniProt Q00537) (Q00537 whole entry): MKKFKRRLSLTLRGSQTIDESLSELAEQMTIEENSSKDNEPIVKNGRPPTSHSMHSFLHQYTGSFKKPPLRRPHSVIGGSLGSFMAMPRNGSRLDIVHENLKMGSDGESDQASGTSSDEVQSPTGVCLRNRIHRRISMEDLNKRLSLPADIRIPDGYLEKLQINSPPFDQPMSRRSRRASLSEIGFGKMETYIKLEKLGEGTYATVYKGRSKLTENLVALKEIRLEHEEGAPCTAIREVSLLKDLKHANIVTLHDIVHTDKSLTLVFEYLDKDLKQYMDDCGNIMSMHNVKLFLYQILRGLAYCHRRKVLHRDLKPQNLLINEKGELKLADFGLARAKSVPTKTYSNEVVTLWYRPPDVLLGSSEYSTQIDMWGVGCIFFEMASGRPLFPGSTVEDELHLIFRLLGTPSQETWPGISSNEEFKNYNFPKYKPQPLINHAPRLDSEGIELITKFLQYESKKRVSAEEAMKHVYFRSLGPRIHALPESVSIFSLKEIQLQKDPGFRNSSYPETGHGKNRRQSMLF
Excerpt: as §1

[5] = molecular target: T2, 363 human kinases (including Aurora A/B/C) (Homo sapiens, UniProt P15735); settings: PHKg2; for remaining activity at 0.1 µM: 100 nM; for remaining activity at 0.1 µM / remaining activity at 0.5 µM: read-out: % Enzyme Activity (relative to DMSO controls)
T2 sequence (P15735 1-406): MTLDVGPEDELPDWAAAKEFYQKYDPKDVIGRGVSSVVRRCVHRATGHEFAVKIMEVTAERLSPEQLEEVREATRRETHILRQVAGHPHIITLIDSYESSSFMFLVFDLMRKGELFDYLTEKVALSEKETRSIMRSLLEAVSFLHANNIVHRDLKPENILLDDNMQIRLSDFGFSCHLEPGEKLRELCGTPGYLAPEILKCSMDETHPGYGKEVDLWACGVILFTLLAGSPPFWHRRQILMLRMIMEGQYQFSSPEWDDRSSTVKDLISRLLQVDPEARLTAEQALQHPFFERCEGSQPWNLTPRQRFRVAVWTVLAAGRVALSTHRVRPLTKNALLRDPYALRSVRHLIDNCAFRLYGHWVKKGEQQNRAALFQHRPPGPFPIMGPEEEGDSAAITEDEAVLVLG
Excerpt: as §1

[6] = molecular target: 363 human kinases (including Aurora A/B/C) (Homo sapiens, UniProt P14616); settings: IRR/INSRR; for remaining activity at 0.1 µM: 100 nM; for remaining activity at 0.1 µM / remaining activity at 0.5 µM: read-out: % Enzyme Activity (relative to DMSO controls)
Chain of 363 human kinases (including Aurora A/B/C) (Homo sapiens, UniProt P14616) (P14616 27-1297): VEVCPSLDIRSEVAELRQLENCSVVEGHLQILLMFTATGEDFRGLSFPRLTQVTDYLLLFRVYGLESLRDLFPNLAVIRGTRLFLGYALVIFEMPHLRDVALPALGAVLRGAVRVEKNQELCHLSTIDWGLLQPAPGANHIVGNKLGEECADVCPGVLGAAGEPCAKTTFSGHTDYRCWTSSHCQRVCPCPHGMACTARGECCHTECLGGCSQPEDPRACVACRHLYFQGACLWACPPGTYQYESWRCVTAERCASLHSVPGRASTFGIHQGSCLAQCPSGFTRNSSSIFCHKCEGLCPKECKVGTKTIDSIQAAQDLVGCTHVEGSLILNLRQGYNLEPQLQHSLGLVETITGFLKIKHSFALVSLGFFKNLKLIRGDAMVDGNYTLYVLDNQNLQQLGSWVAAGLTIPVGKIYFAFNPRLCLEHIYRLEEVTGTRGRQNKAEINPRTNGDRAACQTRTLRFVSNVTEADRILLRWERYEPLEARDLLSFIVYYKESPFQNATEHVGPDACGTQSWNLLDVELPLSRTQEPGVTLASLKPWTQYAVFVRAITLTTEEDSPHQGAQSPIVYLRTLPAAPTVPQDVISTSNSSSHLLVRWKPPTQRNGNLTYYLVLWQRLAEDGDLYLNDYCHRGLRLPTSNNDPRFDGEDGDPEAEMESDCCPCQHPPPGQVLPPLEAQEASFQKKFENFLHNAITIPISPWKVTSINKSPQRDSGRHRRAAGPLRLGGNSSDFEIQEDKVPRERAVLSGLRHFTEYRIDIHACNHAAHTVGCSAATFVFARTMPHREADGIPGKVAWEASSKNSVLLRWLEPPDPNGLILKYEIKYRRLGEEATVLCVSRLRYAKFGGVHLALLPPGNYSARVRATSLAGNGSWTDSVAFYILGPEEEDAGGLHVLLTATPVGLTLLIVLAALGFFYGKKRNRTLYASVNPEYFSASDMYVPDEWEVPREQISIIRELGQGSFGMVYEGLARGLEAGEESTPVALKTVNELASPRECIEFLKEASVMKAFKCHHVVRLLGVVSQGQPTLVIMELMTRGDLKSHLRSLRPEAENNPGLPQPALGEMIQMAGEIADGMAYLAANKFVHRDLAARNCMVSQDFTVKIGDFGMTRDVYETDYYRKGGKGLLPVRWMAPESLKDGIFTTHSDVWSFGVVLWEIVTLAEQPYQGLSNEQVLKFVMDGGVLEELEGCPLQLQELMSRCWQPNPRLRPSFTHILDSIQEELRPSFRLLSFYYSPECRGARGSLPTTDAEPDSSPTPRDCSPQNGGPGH
Excerpt: as §1

[7] = molecular target: 363 human kinases (including Aurora A/B/C) (Homo sapiens, UniProt Q00534); settings: for remaining activity at 0.1 µM: 100 nM; for remaining activity at 0.1 µM / remaining activity at 0.5 µM: read-out: % Enzyme Activity (relative to DMSO controls); for remaining activity at 0.5 µM / % Enzyme Activity (relative to DMSO controls): 500 nM
Chain of 363 human kinases (including Aurora A/B/C) (Homo sapiens, UniProt Q00534) (Q00534 whole entry): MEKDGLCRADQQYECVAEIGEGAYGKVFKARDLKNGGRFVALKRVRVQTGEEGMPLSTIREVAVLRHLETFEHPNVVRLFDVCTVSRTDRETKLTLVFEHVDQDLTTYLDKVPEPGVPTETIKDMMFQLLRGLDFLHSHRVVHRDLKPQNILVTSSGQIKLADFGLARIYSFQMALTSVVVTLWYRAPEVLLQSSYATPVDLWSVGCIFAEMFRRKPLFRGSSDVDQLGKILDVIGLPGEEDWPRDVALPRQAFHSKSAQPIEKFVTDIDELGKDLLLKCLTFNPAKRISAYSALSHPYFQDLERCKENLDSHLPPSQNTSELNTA
Excerpt: as §1

[8] = molecular target: T3, 363 human kinases (including Aurora A/B/C) (Homo sapiens, UniProt Q6VAB6); settings: KSR2; for remaining activity at 0.1 µM: 100 nM; for remaining activity at 0.1 µM / remaining activity at 0.5 µM: read-out: % Enzyme Activity (relative to DMSO controls)
T3 sequence (Q6VAB6 1-950): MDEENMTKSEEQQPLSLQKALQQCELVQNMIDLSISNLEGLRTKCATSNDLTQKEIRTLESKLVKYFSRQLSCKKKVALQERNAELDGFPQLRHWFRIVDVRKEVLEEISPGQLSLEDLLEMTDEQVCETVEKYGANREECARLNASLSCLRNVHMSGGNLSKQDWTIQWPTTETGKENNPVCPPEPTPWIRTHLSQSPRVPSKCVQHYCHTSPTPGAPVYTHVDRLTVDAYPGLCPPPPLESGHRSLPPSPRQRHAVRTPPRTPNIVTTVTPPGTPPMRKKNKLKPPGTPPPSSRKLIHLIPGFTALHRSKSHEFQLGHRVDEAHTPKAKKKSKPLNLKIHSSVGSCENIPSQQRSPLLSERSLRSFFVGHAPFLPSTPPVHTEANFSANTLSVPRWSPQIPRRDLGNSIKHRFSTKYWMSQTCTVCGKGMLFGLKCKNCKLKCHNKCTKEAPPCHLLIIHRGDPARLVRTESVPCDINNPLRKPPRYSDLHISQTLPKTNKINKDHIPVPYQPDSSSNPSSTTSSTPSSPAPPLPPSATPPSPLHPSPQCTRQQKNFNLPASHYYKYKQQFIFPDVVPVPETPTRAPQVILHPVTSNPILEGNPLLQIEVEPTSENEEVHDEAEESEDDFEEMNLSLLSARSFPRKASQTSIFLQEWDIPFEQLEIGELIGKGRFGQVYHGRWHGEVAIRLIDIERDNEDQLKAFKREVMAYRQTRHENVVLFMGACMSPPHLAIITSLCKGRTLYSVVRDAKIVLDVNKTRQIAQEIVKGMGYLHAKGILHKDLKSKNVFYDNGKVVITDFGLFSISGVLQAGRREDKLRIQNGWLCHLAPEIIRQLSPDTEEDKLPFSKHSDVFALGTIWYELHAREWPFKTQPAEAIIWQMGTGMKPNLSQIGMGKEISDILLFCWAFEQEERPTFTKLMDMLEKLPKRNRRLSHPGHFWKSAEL
Excerpt: as §1

[9] = molecular target: 363 human kinases (including Aurora A/B/C) (Homo sapiens, UniProt P16591); settings: FER, [ATP] 50 µM; for remaining activity at 0.1 µM: 100 nM; for remaining activity at 0.1 µM / remaining activity at 0.5 µM: read-out: % Enzyme Activity (relative to DMSO controls)
Chain of 363 human kinases (including Aurora A/B/C) (Homo sapiens, UniProt P16591) (P16591 whole entry): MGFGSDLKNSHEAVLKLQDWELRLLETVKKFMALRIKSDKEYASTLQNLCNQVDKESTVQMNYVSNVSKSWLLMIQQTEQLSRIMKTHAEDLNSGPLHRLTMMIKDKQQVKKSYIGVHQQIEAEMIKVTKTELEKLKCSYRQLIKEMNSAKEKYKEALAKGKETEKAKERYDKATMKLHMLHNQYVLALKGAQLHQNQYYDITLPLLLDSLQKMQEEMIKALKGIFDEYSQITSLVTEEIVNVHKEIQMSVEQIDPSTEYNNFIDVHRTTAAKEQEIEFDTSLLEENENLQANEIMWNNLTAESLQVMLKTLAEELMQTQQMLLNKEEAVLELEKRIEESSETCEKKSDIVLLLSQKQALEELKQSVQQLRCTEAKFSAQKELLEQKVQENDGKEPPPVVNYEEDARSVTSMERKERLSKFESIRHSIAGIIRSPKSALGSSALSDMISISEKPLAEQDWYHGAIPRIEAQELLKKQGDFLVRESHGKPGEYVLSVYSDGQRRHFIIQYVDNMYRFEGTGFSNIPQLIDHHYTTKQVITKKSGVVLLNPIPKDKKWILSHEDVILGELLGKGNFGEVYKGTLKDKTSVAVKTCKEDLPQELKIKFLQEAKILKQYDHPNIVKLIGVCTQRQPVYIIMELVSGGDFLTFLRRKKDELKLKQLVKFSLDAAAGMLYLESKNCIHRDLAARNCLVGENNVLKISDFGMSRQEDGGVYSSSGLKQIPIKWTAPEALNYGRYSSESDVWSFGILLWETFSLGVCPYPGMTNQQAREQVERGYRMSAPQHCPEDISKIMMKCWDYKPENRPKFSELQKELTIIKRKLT
Excerpt: as §1

[10] = molecular target: 363 human kinases (including Aurora A/B/C) (Homo sapiens, UniProt P19784); settings: CK2a2, [ATP] 30 µM; for remaining activity at 0.1 µM: 100 nM; for remaining activity at 0.1 µM / remaining activity at 0.5 µM: read-out: % Enzyme Activity (relative to DMSO controls)
Chain of 363 human kinases (including Aurora A/B/C) (Homo sapiens, UniProt P19784) (P19784 whole entry): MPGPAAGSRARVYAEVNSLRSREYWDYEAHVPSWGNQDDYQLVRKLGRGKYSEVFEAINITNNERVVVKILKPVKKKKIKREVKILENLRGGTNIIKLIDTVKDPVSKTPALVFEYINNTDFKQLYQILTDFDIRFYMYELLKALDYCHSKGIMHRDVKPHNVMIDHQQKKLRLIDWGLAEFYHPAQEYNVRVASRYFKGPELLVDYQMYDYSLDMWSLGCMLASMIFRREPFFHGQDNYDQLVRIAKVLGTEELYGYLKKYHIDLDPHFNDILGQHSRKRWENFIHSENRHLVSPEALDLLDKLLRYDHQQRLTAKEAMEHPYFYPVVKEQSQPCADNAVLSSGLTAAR
Excerpt: as §1

[11] = 500 nM, read-out: % Enzyme Activity (relative to DMSO controls)

For CCn1cc(-c2ccnc3[nH]c(-c4cccc(CN(C)C)c4)cc23)c(-c2ccc(NC(=O)N(C)C)cc2)n1 [GSK1070916], the remaining activity at 0.1 µM [1] was 59.1%, the remaining activity at 0.1 µM ([2]; 100 nM, read-out: % Enzyme Activity (relative to DMSO controls)) was 99.2% and the remaining activity at 0.1 µM [3] was 108%. It also gave a remaining activity at 0.1 µM [4] of 90.9%, a remaining activity at 0.1 µM [5] of 95.3% and a remaining activity at 0.1 µM [6] of 99.5%. For the same compound, the remaining activity at 0.1 µM ([7]; CDK6/cyclin D1, [ATP] 20 µM) was 98.8%, the remaining activity at 0.1 µM ([7]; CDK6/cyclin D3, [ATP] 30 µM) was 102% and the remaining activity at 0.1 µM [8] was 101%. For the same compound, the remaining activity at 0.1 µM [9] was 96.5% and the remaining activity at 0.1 µM [10] was 89.1%.

For O=C(O)[C@]1(Cc2cccc(Nc3nccs3)n2)CC[C@@H](Oc2cccc(Cl)c2F)CC1 [MK-5108], the remaining activity at 0.1 µM [1] was 153%, the remaining activity at 0.5 µM ([1]; 500 nM) was 104% and the remaining activity at 0.5 µM [2, 11] was 56.2%. The remaining activity at 0.1 µM [3] was 93.7%, the remaining activity at 0.5 µM ([3]; 500 nM) was 103% and the remaining activity at 0.1 µM [4] was 95.4%. The remaining activity at 0.5 µM ([4]; 500 nM) was 81.9%, the remaining activity at 0.1 µM [5] was 92.2% and the remaining activity at 0.5 µM ([5]; 500 nM) was 93.6%. It also gave a remaining activity at 0.1 µM [6] of 81.7%, a remaining activity at 0.5 µM ([6]; 500 nM) of 46.3% and a remaining activity at 0.1 µM ([7]; CDK6/cyclin D1, [ATP] 20 µM) of 90.3%. The remaining activity at 0.5 µM ([7]; CDK6/cyclin D1, [ATP] 20 µM) was 96.2%, the remaining activity at 0.1 µM ([7]; CDK6/cyclin D3, [ATP] 30 µM) was 89.7% and the remaining activity at 0.5 µM ([7]; CDK6/cyclin D3, [ATP] 30 µM) was 95.1%. For the same compound, the remaining activity at 0.1 µM [8] was 95.6%, the remaining activity at 0.5 µM ([8]; 500 nM) was 94.5% and the remaining activity at 0.1 µM [9] was 87%. For the same compound, the remaining activity at 0.5 µM ([9]; 500 nM) was 49.8%, the remaining activity at 0.1 µM [10] was 87.2% and the remaining activity at 0.5 µM ([10]; 500 nM) was 86.5%.

With O=C(c1cccc(Cl)c1F)N1CCN(Cc2cccc(Nc3nccs3)n2)CC1 [MK-8745] the “% Enzyme Activity (relative to DMSO controls)” value ([1]; 500 nM) was 128.29%, the remaining activity at 0.5 µM ([1]; 500 nM) was 130% and the “% Enzyme Activity (relative to DMSO controls)” value ([2]; 500 nM) was 91.78%. The remaining activity at 0.5 µM [2, 11] was 93.2%, the “% Enzyme Activity (relative to DMSO controls)” value ([3]; 500 nM) was 103.58% and the remaining activity at 0.5 µM ([3]; 500 nM) was 104%. For the same compound, the “% Enzyme Activity (relative to DMSO controls)” value ([4]; 500 nM) was 86.82%, the remaining activity at 0.5 µM ([4]; 500 nM) was 87% and the “% Enzyme Activity (relative to DMSO controls)” value ([5]; 500 nM) was 94.03%. For the same compound, the remaining activity at 0.5 µM ([5]; 500 nM) was 94.7%, the “% Enzyme Activity (relative to DMSO controls)” value ([6]; 500 nM) was 75.20% and the remaining activity at 0.5 µM ([6]; 500 nM) was 76.4%. For the same compound, the “% Enzyme Activity (relative to DMSO controls)” value ([7]; CDK6/cyclin D1, [ATP] 20 µM) was 94.81%, the remaining activity at 0.5 µM ([7]; CDK6/cyclin D1, [ATP] 20 µM) was 96.4% and the “% Enzyme Activity (relative to DMSO controls)” value ([7]; CDK6/cyclin D3, [ATP] 30 µM) was 93.71%. For the same compound, the remaining activity at 0.5 µM ([7]; CDK6/cyclin D3, [ATP] 30 µM) was 95.7%, the “% Enzyme Activity (relative to DMSO controls)” value ([8]; 500 nM) was 95.49% and the remaining activity at 0.5 µM ([8]; 500 nM) was 98.3%. The “% Enzyme Activity (relative to DMSO controls)” value ([9]; 500 nM) was 82.62%, the remaining activity at 0.5 µM ([9]; 500 nM) was 83.7% and the “% Enzyme Activity (relative to DMSO controls)” value ([10]; 500 nM) was 85.44%. The remaining activity at 0.5 µM ([10]; 500 nM) was 85.8%.

Reference: PMC4685510, “A Cell Biologist’s Field Guide to Aurora Kinase Inhibitors” (Frontiers in Oncology, 2015)
